SMILES strings stand for the structures.

The target in the first test is T1, human glucagon receptor (Homo sapiens, UniProt P47871).
T1 construct: expressed in transfected cells; host or cells: BHK (baby hamster kidney) cells
T1 sequence (P47871 26-477): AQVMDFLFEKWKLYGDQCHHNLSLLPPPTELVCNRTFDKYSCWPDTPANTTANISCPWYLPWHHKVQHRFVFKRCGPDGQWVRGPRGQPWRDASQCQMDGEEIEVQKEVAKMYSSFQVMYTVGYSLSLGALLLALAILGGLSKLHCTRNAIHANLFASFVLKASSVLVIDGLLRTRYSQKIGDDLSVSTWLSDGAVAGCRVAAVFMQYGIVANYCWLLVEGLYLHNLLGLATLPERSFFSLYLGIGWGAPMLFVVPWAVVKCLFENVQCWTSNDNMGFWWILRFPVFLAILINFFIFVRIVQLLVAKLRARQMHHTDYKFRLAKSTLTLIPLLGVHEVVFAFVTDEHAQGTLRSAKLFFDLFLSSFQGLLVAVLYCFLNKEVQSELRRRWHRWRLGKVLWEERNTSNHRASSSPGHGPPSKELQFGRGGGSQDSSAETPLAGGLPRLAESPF
Put plainly: Glucagon Binding Assay (III). As to conditions: BHK cell membranes, WGA SPA beads, 125I-glucagon; read-out: Glu Bd Assay (III) IC50. The procedure:
BHK (baby hamster kidney cell line) cells were transfected with the human glucagon receptor and a membrane preparation of the cells was prepared.
All steps in the membrane preparation were kept on ice or performed at 4° C. BHK cells were harvested and centrifuged. […] The pellet was resuspended in homogenisation buffer, homogenised 2×10 sec (Polytron) and additional homogenisation buffer was added. […] (Polytron).
The glucagon binding assay was carried out in opti plates (Polystyrene Microplates, Packard). […] Finally 50 μL WGA beads containing 1 mg beads were transferred to the well. The assay was incubated for 4 hours on a shaker and then settled for 8-48 hours. The opti plates were counted in a Topcounter. Non-specific binding was determined with 500 nM of glucagon.
Consider `CCCCN1C(=O)c2ccc(NC(=O)N(Cc3ccc(C(=O)NCCC(=O)O)cc3)C3CCC(C(C)(C)C)CC3)cc2C1=O` (stereo not shown) [Example 637, 3-{4-[1-(4-tert-Butylcyclohexyl)-3-(N′-butylphthalimid-4-yl)ureidomethyl]benzoylamino}propionic acid], for which the 50% inhibitory concentration (IC50) was found to be 116 nM.
On to `CC(C)(C)c1ccc(N(Cc2ccc(C(=O)Nc3nn[nH]n3)cc2)C(=O)Nc2cccc(C(N)=O)c2)cc1` [Example 459, 3-{3-(4-tert-Butylphenyl)-3-[4-(2H-tetrazol-5-ylcarbamoyl)benzyl]ureido}benzamide], for which the IC50 amounted to 2110 nM.
For the compound `CC(C)(C)C1CCC(N(Cc2ccc(C(=O)NCCC(=O)O)cc2)C(=O)c2cc3cc(Cl)ccc3o2)CC1` (stereo not shown) [Example 562, 3-(4-{[(4-tert-Butylcyclohexyl)-(5-chlorobenzofuran-2-carbonyl)amino]methyl}benzoylamino)propionic acid], the IC50 is 146 nM.
Turning to `CC(C)(C)C1CCC(N(Cc2ccc(C(=O)Nc3nn[nH]n3)cc2)C(=O)/C=C/c2cccs2)CC1` (stereo not shown) [Example 476, 4-{[(4-tert-Butylcyclohexyl)-(3-thiophen-2-ylacryloyl)amino]methyl}-N-(2H-tetrazol-5-yl)benzamide], the IC50 was found to be 955 nM.
Still for that read-out and setting: then `O=C(Nc1nn[nH]n1)c1ccc(CN(C(=O)Nc2cc(Br)cc(C(F)(F)F)c2)c2ccc(C3=CCCCC3)cc2)cc1` [Example 269, 4-[3-(3-Bromo-5-trifluoromethylphenyl)-1-(4-cyclohex-1-enylphenyl)ureidomethyl]-N-(2H-tetrazol-5-yl)benzamide], with 38 nM.
The same measure, in the same setting: then `O=C(Nc1nn[nH]n1)c1ccc(CN(C(=O)Nc2ccc3c(c2)C(=O)N(CC2CC2)C3=O)c2ccc(C3CCCCC3)cc2)cc1` [Example 639, 4-[1-(4-Cyclohexylphenyl)-3-(N′-[cyclopropylmethyl]phthalimid-4-yl)ureidomethyl]-N-(2H-tetrazol-5-yl)benzamide], with 4 nM.
The same measure, in the same setting: then `O=C(Nc1nn[nH]n1)c1ccc(CN(C(=O)Nc2cccc(Br)c2)c2ccc(C3CCCCC3)cc2)cc1` [Example 356, 4-[3-(3-Bromophenyl)-1-(4-cyclohexylphenyl)ureidomethyl]-N-(2H-tetrazol-5-yl)benzamide], with 16 nM; and `CCCCN1C(=O)c2ccc(NC(=O)N(Cc3ccc(C(=O)Nc4nn[nH]n4)cc3)C3CCC(C(C)(C)C)CC3)cc2C1=O` (stereo not shown) [Example 633, 4-[1-(4-tert-Butylcyclohexyl)-3-(N′-butylphthalimid-4-yl)ureidomethyl]-N-(2H-tetrazol-5-yl)benzamide], with 19 nM.
`CS(=O)(=O)c1ccc(OC(=O)N(Cc2ccc(C(=O)NCCC(=O)O)cc2)c2ccc(C3CCCCC3)cc2)cc1` [Example 621, 3-(4-{[(4-Cyclohexylphenyl)-(4-(methylsulfonyl)phenoxycarbonyl)amino]methyl}benzoylamino)propionic acid]: the concentration for half-maximal inhibition (IC50) was 4600 nM.
The same measure, in the same setting: then `O=C(Nc1nn[nH]n1)c1ccc(CN(C(=O)c2cccc(Cl)c2)c2ccc(C3=CCCCC3)cc2)cc1` [Example 495, 4-({(4-Cyclohex-1-enylphenyl)-(3-chlorobenzoyl)amino}methyl)-N-(2H-tetrazol-5-yl)benzamide], with 306 nM; and `O=C(Nc1nn[nH]n1)c1ccc(CN(C(=O)NCCc2ccccc2)c2ccc(C3CCCCC3)cc2)cc1` [Example 323, 4-[1-(4-Cyclohexylphenyl)-3-phenethylureidomethyl]-N-(2H-tetrazol-5-yl)benzamide], with 102 nM.
The same measure, in the same setting: then `O=C(O)CCNC(=O)c1ccc(CN(C(=O)Oc2ccc(F)c(F)c2)c2ccc(C3CCCCC3)cc2)cc1` [Example 417, 3-(4-{[(4-Cyclohexylphenyl)-(3,4-difluorophenoxycarbonyl)amino]methyl}benzoylamino)propionic acid], with 877 nM; and `CC(C)(C)C1CCC(N(Cc2ccc(C(=O)Nc3nn[nH]n3)cc2)C(=O)/C=C/c2cccc(Cl)c2)CC1` (stereo not shown) [Example 551, 4-({(4-tert-Butylcyclohexyl)-[3-(3-chlorophenyl)acroloyl]amino}methyl)-N-(2H-tetrazol-5-yl)benzamide], with 136 nM; and `N#Cc1cccc(NC(=O)N(Cc2ccc(C(=O)Nc3nn[nH]n3)cc2)c2ccc(C3CCCCC3)cc2)c1` [Example 256, 4-[3-(3-Cyanophenyl)-1-(4-cyclohexylphenyl)ureidomethyl]-N-(2H-tetrazol-5-yl)benzamide], with 75 nM.
Still for that read-out and setting: under `CC(C)(C)C1CCC(N(Cc2ccc(C(=O)NCCC(=O)O)cc2)C(=O)Nc2ccc(-c3ccc(C#N)cc3)cc2)CC1` (stereo not shown) [Example 68, 3-{4-[1-(4-tert-Butylcyclohexyl)-3-(4′-cyanobiphenyl-4-yl)ureidomethyl]benzoylamino}propionic acid] stands 552 nM; under `COc1cc(NC(=O)N(Cc2ccc(C(=O)Nc3nn[nH]n3)cc2)C2CCC(C(C)(C)C)CC2)cc(C(F)(F)F)c1` (stereo not shown) [Example 602, 4-[1-(4-tert-Butylcyclohexyl)-3-(3-methoxy-5-trifluoromethylphenyl)ureidomethyl]-N-(2H-tetrazol-5-yl)benzamide], 26 nM.
As to `CC(C)(C)C1CCC(N(Cc2ccc(C(=O)Nc3nn[nH]n3)cc2)C(=O)/C=C/c2ccc(Cl)cc2)CC1` (stereo not shown) [Example 549, 4-({(4-tert-Butylcyclohexyl)-[3-(4-chlorophenyl)acroloyl]amino}methyl)-N-(2H-tetrazol-5-yl)benzamide], the 50% inhibitory concentration (IC50) came to 55 nM.
Same read-out and setting: under `O=C(Nc1nn[nH]n1)c1ccc(CN(C(=O)CSCc2ccccc2)c2ccc(C3CCCCC3)cc2)cc1` [Example 532, 4-{[(2-Benzylsulfanylacetyl)-(4-cyclohexylphenyl)amino]methyl}-N-(2H-tetrazol-5-yl)benzamide] stands 626 nM; under `O=C(O)CCNC(=O)c1ccc(CN(C(=O)Nc2ccc(OC(F)(F)F)cc2)[C@H]2CC[C@@H](c3ccccc3)CC2)cc1` [Example 80, 3-{4-[1-(4-cis-Phenylcyclohexyl)-3-(4-trifluoromethoxyphenyl)ureidomethyl]benzoylamino}propionic acid], 229 nM; under `CC(C)c1ccc(CN(Cc2ccc(C(=O)NCCC(=O)O)cc2)C(=O)Nc2ccc(OC(F)(F)F)cc2)cc1` [Example 433, 3-{4-[1-(4-Isopropylbenzyl)-3-(4-trifluoromethoxyphenyl)ureidomethyl]benzoylamino}propionic acid], 1250 nM.
On the same count and under the same terms, under `CC(C)(C)c1ccc(N(Cc2ccc(C(=O)Nc3nn[nH]n3)cc2)C(=O)Nc2ccccc2)cc1` [Example 329] stands 278 nM; under `O=C(O)CCNC(=O)c1ccc(CN(C(=O)Nc2ccc(OC(F)(F)F)cc2)C2CCC3CCCCC3C2)cc1` (stereo not shown) [Example 79, 3-{4-[1-(Decahydronaphthalen-2-yl)-3-(4-trifluoromethoxyphenyl)ureidomethyl]benzoylamino}propionic acid], 200 nM.
With `O=C(O)CCNC(=O)c1ccc(CN(C(=O)Nc2ccc(OC(F)(F)F)cc2)c2ccc(OC(F)(F)F)cc2)cc1` [Example 438, 3-{4-[1,3-Bis(4-trifluoromethoxyphenyl)ureidomethyl]benzoylamino}propionic acid], the IC50 came to 288 nM.
Consider `CN(C)C(=O)c1cccc(NC(=O)N(Cc2ccc(C(=O)Nc3nn[nH]n3)cc2)c2ccc(C(C)(C)C)cc2)c1` [Example 461, N,N-Dimethyl-3-{3-(4-tert-butylphenyl)-3-[4-(2H-tetrazol-5-ylcarbamoyl)benzyl]ureido}benzamide], for which the IC50 amounted to 764 nM.
Still for that read-out and setting: under `O=C(Nc1nn[nH]n1)c1ccc(CN(C(=O)/C=C/c2ccccc2Cl)c2ccc(C3CCCCC3)cc2)cc1` [Example 500, 4-{[[3-(2-Chlorophenyl)acryloyl]-(4-cyclohexylphenyl)amino]methyl}-N-(2H-tetrazol-5-yl)benzamide] stands 140 nM; under `CC(C)(C)C1CCC(N(Cc2ccc(C(=O)Nc3nn[nH]n3)cc2)C(=O)c2cc3ccccc3s2)CC1` (stereo not shown) [Example 473, Benzo[b]thiophene-2-carboxylic acid (4-tert-butylcyclohexyl)-[4-(2H-tetrazol-5-ylcarbamoyl)benzyl]amide], 1500 nM.
Take `CC(C)(C)C1CCC(N(Cc2ccc(C(=O)Nc3nn[nH]n3)cc2)C(=O)C2=CCc3ccccc32)CC1` (stereo not shown) [Example 546, 4-([(4-tert-Butylcyclohexyl)-(3H-indene-1-carbonyl)amino]methyl}-N-(2H-tetrazol-5-yl)benzamide]: the IC50 is 1740 nM.
For `CCCCOC(=O)c1ccc(NC(=O)N(Cc2ccc(C(=O)NCCC(=O)O)cc2)CC(C)c2ccccc2)cc1` (stereo not shown) [Example 49, 4-[3-[4-(2-Carboxyethylcarbamoyl)benzyl]-3-(2-phenylpropyl)ureido]benzoic acid butyl ester], the IC50 was 1320 nM.
Same read-out and setting: under `CC(C)(C)c1ccc(N(Cc2ccc(C(=O)Nc3nn[nH]n3)cc2)C(=O)Nc2cccc(S(=O)(=O)N3CCCCC3)c2)cc1` [Example 277] stands 411 nM.

The same test, now with this note: Glu Bd Assay (III) IC50 (nM), BHK cell membranes, WGA SPA beads, 125I-glucagon.
Compound `CCN(CC)C(=O)c1ccc(NC(=O)N(Cc2ccc(C(=O)NCCC(=O)O)cc2)[C@H]2CC[C@H](C(C)(C)C)CC2)cc1` [Example 240, 3-{4-[1-(trans-4-tert-Butylcyclohexyl)-3-(4-diethylcarbamoylphenyl)ureidomethyl]benzoylamino}propionic acid] had an IC50 of 2430 nM.
On the same count and under the same terms, then `CC(C)(C)[C@H]1CC[C@H](N(Cc2ccc(C(=O)NCCC(=O)O)cc2)C(=O)Nc2ccccc2)CC1` [Example 243, 3-{4-[1-(trans-4-tert-Butylcyclohexyl)-3-phenylureidomethyl]benzoylamino}propionic acid], with 1090 nM.

The values are drawn from patent US6875760B2 (Novo Nordisk A/S, priority 1999, dated 2005).
